Marks after values point to notes of the source that are not given here.
Columns and labels:
Assay type in all cases: in vivo, nude/nude mice
H358 cells = assay: H358 tumor bearing mice, single agents and combination
Experimental: (§1) Immunocompromised nude/nude mice are inoculated in the right hind flank with cells or patient derived tumor samples harboring a KRas G12C mutation. When tumor volumes reach between 200-400 mm^3 in size, the mice are divided into four groups of 5-12 mice each. The first group is administered vehicle only. […] The fourth group is administered the single agent dose of the KRas G12C inhibitor in combination with the single agent dose of the SHP-2 inhibitor. […] Tumor volumes are measured using a caliper every two-three days and tumor volumes are calculated by the formula: 0.5×[…].
(§2) 20 nude/nude mice per study were inoculated in the right hind limb with 5×10^6 SW1573 cells, KYSE410 cells or H358 cells.

SW1573 cells = assay: SW1573 tumor bearing mice, single agents and combination; conditions: for tumor growth inhibition: Day 22, Compound 478 100 mg/kg or RMC-4550 30 mg/kg p.o. daily; for Average Tumor Volume: Compound 478 100 mg/kg, RMC-4550 30 mg/kg
Experimental: as §1, §2

H2122 cells = assay: H2122 tumor bearing mice, single agents and combination; conditions: for tumor growth inhibition: Day 29, Compound 478 100 mg/kg or RMC-4550 30 mg/kg p.o. daily; for Average Tumor Volume: Compound 478 100 mg/kg, RMC-4550 30 mg/kg
Experimental: as §1
Similarly, 25 nude/nude mice were inoculated in the right hind limb with 5×10^6 H2122 cells.

KYSE410 cells = assay: KYSE410 tumor bearing mice, single agents and combination; conditions: for tumor growth inhibition: Day 22, Compound 478 100 mg/kg or RMC-4550 30 mg/kg p.o. daily; for Average Tumor Volume: Compound 478 100 mg/kg, RMC-4550 30 mg/kg
Experimental: as §1, §2

[1] = Study Day 0, p.o. daily, Compound 478 100 mg/kg, RMC-4550 30 mg/kg, 5 mice
[2] = Study Day 4, p.o. daily, Compound 478 100 mg/kg, RMC-4550 30 mg/kg
[3] = Study Day 6, p.o. daily, Compound 478 100 mg/kg, RMC-4550 30 mg/kg
[4] = Study Day 8, p.o. daily, Compound 478 100 mg/kg, RMC-4550 30 mg/kg
[5] = Study Day 12, p.o. daily, Compound 478 100 mg/kg, RMC-4550 30 mg/kg
[6] = Study Day 15, p.o. daily, Compound 478 100 mg/kg, RMC-4550 30 mg/kg
[7] = Study Day 18, p.o. daily, Compound 478 100 mg/kg, RMC-4550 30 mg/kg
[8] = Study Day 20, p.o. daily, Compound 478 100 mg/kg, RMC-4550 30 mg/kg
[9] = Study Day 22, p.o. daily, Compound 478 100 mg/kg, RMC-4550 30 mg/kg, RMC-4550 single agent: dosing was stopped after Day 22
[10] = Study Day 0, p.o. daily, 5 mice

Cc1nc(N2CCC3(CC2)CO[C@@H](C)[C@H]3N)c(CO)nc1-c1cccc(Cl)c1Cl [RMC-4550]
tumor growth inhibition (H358 cells; Day 22, RMC-4550 30 mg/kg p.o. daily): 22% | Average Tumor Volume (H358 cells; [1]): 333 mm^3 | Average Tumor Volume (H358 cells; [2]): 336 mm^3 | Average Tumor Volume (H358 cells; [3]): 343 mm^3 | Average Tumor Volume (H358 cells; [4]): 372 mm^3 | Average Tumor Volume (H358 cells; [5]): 388 mm^3 | Average Tumor Volume (H358 cells; [6]): 399 mm^3 | Average Tumor Volume (H358 cells; [7]): 422 mm^3 | Average Tumor Volume (H358 cells; [8]): 454 mm^3 | Average Tumor Volume (H358 cells; [9]): 492‡ mm^3 | tumor growth inhibition (SW1573 cells): 68% | Average Tumor Volume (SW1573 cells; [10]): 336 mm^3 | Average Tumor Volume (SW1573 cells; Study Day 2, p.o. daily): 280 mm^3 | Average Tumor Volume (SW1573 cells; Study Day 4, p.o. daily): 286 mm^3 | Average Tumor Volume (SW1573 cells; Study Day 7, p.o. daily): 336 mm^3 | Average Tumor Volume (SW1573 cells; Study Day 9, p.o. daily): 305 mm^3 | Average Tumor Volume (SW1573 cells; Study Day 11, p.o. daily): 326 mm^3 | Average Tumor Volume (SW1573 cells; Study Day 14, p.o. daily): 418 mm^3 | Average Tumor Volume (SW1573 cells; Study Day 16, p.o. daily): 421 mm^3 | Average Tumor Volume (SW1573 cells; Study Day 18, p.o. daily): 375 mm^3 | Average Tumor Volume (SW1573 cells; Study Day 21, p.o. daily): 392 mm^3 | Average Tumor Volume (SW1573 cells; Study Day 22, p.o. daily): 510 mm^3 | tumor growth inhibition (H2122 cells): 47% | Average Tumor Volume (H2122 cells; [10]): 350 mm^3 | Average Tumor Volume (H2122 cells; Study Day 4, p.o. daily): 515 mm^3 | Average Tumor Volume (H2122 cells; Study Day 6, p.o. daily): 578 mm^3 | Average Tumor Volume (H2122 cells; Study Day 8, p.o. daily): 614 mm^3 | Average Tumor Volume (H2122 cells; Study Day 11, p.o. daily): 683 mm^3 | Average Tumor Volume (H2122 cells; Study Day 13, p.o. daily): 750 mm^3 | Average Tumor Volume (H2122 cells; Study Day 15, p.o. daily): 856 mm^3 | Average Tumor Volume (H2122 cells; Study Day 18, p.o. daily): 880 mm^3 | Average Tumor Volume (H2122 cells; Study Day 21, p.o. daily): 916 mm^3 | Average Tumor Volume (H2122 cells; Study Day 24, p.o. daily): 1026 mm^3 | Average Tumor Volume (H2122 cells; Study Day 27, p.o. daily): 1137 mm^3 | Average Tumor Volume (H2122 cells; Study Day 29, p.o. daily): 1166 mm^3 | tumor growth inhibition (KYSE410 cells): 90% | Average Tumor Volume (KYSE410 cells; [10]): 314 mm^3 | Average Tumor Volume (KYSE410 cells; Study Day 2, p.o. daily): 311 mm^3 | Average Tumor Volume (KYSE410 cells; Study Day 4, p.o. daily): 316 mm^3 | Average Tumor Volume (KYSE410 cells; Study Day 7, p.o. daily): 299 mm^3 | Average Tumor Volume (KYSE410 cells; Study Day 9, p.o. daily): 316 mm^3 | Average Tumor Volume (KYSE410 cells; Study Day 11, p.o. daily): 309 mm^3 | Average Tumor Volume (KYSE410 cells; Study Day 14, p.o. daily): 309 mm^3 | Average Tumor Volume (KYSE410 cells; Study Day 18, p.o. daily): 303 mm^3 | Average Tumor Volume (KYSE410 cells; Study Day 21, p.o. daily): 372 mm^3 | Average Tumor Volume (KYSE410 cells; Study Day 22, p.o. daily): 377 mm^3

C=C(F)C(=O)N1CCN(c2nc(OC[C@@H]3CCCN3C)nc3c2CCN(c2cccc4cccc(Cl)c24)C3)C[C@@H]1CC#N [Compound 478]
tumor regression (H358 cells; Day 22, Compound 478 100 mg/kg, alone or with RMC-4550 30 mg/kg, p.o. daily): 68% | Average Tumor Volume (H358 cells; [1]): 335 mm^3 | Average Tumor Volume (H358 cells; [2]): 277 mm^3 | Average Tumor Volume (H358 cells; [3]): 244 mm^3 | Average Tumor Volume (H358 cells; [4]): 200 mm^3 | Average Tumor Volume (H358 cells; [5]): 156 mm^3 | Average Tumor Volume (H358 cells; [6]): 133 mm^3 | Average Tumor Volume (H358 cells; [7]): 120 mm^3 | Average Tumor Volume (H358 cells; [8]): 113 mm^3 | Average Tumor Volume (H358 cells; [9]): 109 mm^3 | Average Tumor Volume (H358 cells; Study Day 25, p.o. daily, Compound 478 100 mg/kg, RMC-4550 30 mg/kg): 90 mm^3 | Average Tumor Volume (H358 cells; Study Day 27, p.o. daily, Compound 478 100 mg/kg, RMC-4550 30 mg/kg): 92 mm^3 | Average Tumor Volume (H358 cells; Study Day 29, Compound 478 100 mg/kg, RMC-4550 30 mg/kg p.o.): 81 mm^3 | Average Tumor Volume (H358 cells; Study Day 32, Compound 478 100 mg/kg, RMC-4550 30 mg/kg p.o.): 82 mm^3 | Average Tumor Volume (H358 cells; Study Day 34, Compound 478 100 mg/kg, RMC-4550 30 mg/kg p.o.): 84 mm^3 | Average Tumor Volume (H358 cells; Study Day 36, Compound 478 100 mg/kg, RMC-4550 30 mg/kg p.o.): 81 mm^3 | Average Tumor Volume (H358 cells; Study Day 39, Compound 478 100 mg/kg, RMC-4550 30 mg/kg p.o.): 73 mm^3 | Average Tumor Volume (H358 cells; Study Day 41, Compound 478 100 mg/kg, RMC-4550 30 mg/kg p.o.): 58 mm^3 | tumor growth inhibition (SW1573 cells): 81% | Average Tumor Volume (SW1573 cells; [10]): 335 mm^3 | Average Tumor Volume (SW1573 cells; Study Day 2, p.o. daily): 281 mm^3 | Average Tumor Volume (SW1573 cells; Study Day 4, p.o. daily): 318 mm^3 | Average Tumor Volume (SW1573 cells; Study Day 9, p.o. daily): 336 mm^3 | Average Tumor Volume (SW1573 cells; Study Day 14, p.o. daily): 363 mm^3 | Average Tumor Volume (SW1573 cells; Study Day 21, p.o. daily): 419 mm^3 | Average Tumor Volume (SW1573 cells; Study Day 22, p.o. daily): 433 mm^3 | tumor growth inhibition (H2122 cells): 93% | Average Tumor Volume (H2122 cells; Study Day 11, p.o. daily): 382 mm^3 | Average Tumor Volume (H2122 cells; Study Day 21, p.o. daily): 430 mm^3 | tumor growth inhibition (KYSE410 cells): 93% | Average Tumor Volume (KYSE410 cells; [10]): 312 mm^3 | Average Tumor Volume (KYSE410 cells; Study Day 2, p.o. daily): 320 mm^3 | Average Tumor Volume (KYSE410 cells; Study Day 4, p.o. daily): 302 mm^3 | Average Tumor Volume (KYSE410 cells; Study Day 7, p.o. daily): 281 mm^3 | Average Tumor Volume (KYSE410 cells; Study Day 9, p.o. daily): 265 mm^3 | Average Tumor Volume (KYSE410 cells; Study Day 11, p.o. daily): 277 mm^3 | Average Tumor Volume (KYSE410 cells; Study Day 14, p.o. daily): 340 mm^3 | Average Tumor Volume (KYSE410 cells; Study Day 18, p.o. daily): 349 mm^3 | Average Tumor Volume (KYSE410 cells; Study Day 21, p.o. daily): 384 mm^3 | Average Tumor Volume (KYSE410 cells; Study Day 22, p.o. daily): 359 mm^3
